The text below walks through data of US10183058B2, “Method of preventing or reducing the progression of prostate cancer” (Nymox Corporation, priority 2016, dated 2019).

Ends that are not written are not given here.

This experiment relates to prostate cancer. Kind of experiment: Clinical studies in men with BPH given SEQ ID NO. 66 by intraprostatic injection; incidence of clinically or biopsy detected prostate cancer. The settings on record: 2.5 mg intraprostatic injection; for Incidence of cancer (Gleason Grade >= 7): follow-up up to 6.5 years, compared to known expected incidence of 5-6%. It is filed as in vivo, human (men). The protocol: In a series of clinical studies undertaken between 2009 and 2016 a total of 628 men with benign prostatic hyperplasia (BPH) received SEQ ID NO. 66 (Ile-Asp-Gln-Gln-Val-Leu-Ser-Arg-Ile-Lys-Leu-Glu-Ile-Lys-Arg-Cys-Leu), 2.5 mg given by intraprostatic injection into the transition zone of the prostate to treat the symptoms of BPH and were subsequently followed clinically and by laboratory testing. After intervals up to 6.5 years after injection, all available patients were followed urologically at specialized clinics with investigation of BPH symptoms and events of disease progression and safety assessments. All cases of clinically or biopsy detected prostate cancer were documented. The incidence of new biopsy or surgically proven prostate cancer after 12 months and overall was compared to the incidence of detected prostate cancer in large long-term clinical trials in the medical literature. Although a) the treatments were for BPH; b) the injections were directed at the central part of the prostate where cancer is less common; and c) the injections consisted of only a single or two injection(s) of SEQ ID NO. […]
In a series of clinical studies undertaken between 2009 and 2016, a total of 816 men with benign prostatic hyperplasia (BPH) received SEQ ID NO. […] All cases of clinically or biopsy detected prostate cancer were documented. The incidence of new biopsy or surgically proven prostate cancer after 12 months and overall was compared to the incidence of detected prostate cancer in the patients receiving the sterile saline solution (control). […]
In a series of clinical studies undertaken between 2009 and 2016 a total of 628 men with benign prostatic hyperplasia (BPH) received SEQ ID NO. […] All cases of clinically or biopsy detected prostate cancer were documented. The incidence of new biopsy or surgically proven prostate cancer of Gleason Grade>=7 was compared to the incidence of detected prostate cancer in large long-term clinical trials in the medical literature. […]

With IDQQVLSRIKLEIKRCL [SEQ ID NO: 66], the “Incidence of cancer (Gleason Grade >= 7)” value is reported as <0.3%. In addition, where the note is “compared to known expected incidence of 2-25%”, the “incidence of prostate cancer (after 12 months and overall)” value is reported as 0-1.3%. For the same sequence, the “Incidence of cancer (Gleason Grade >= 7)” value (listed as SEQ ID NO. 66) is < 0.3%.
